Measurements published in patent US9296745B2, “Diacylglycerol acyltransferase 2 inhibitors” (Pfizer Inc., priority 2012, dated 2016).
Structures can show the parent of a compound that is named as a salt.

target: Human DGAT2 (hDGAT2) (Homo sapiens (Human), UniProt Q96PD7); assay: In vitro DGAT2 assay, IC50 determination with hDGAT2 membrane fraction; type: biochemical; conditions: geometric mean; background for complete inhibition of DGAT2 obtained with 50 μM (1R,2R)-2-({3′-Fluoro-4′-[(6-fluoro-1,3-benzothiazol-2-yl)amino]-1,1′-biphenyl-4-yl}carbonyl)cyclopentanecarboxylic acid; hydrochloride; read-out: DGAT2 IC50
Sequence (Q96PD7 whole entry): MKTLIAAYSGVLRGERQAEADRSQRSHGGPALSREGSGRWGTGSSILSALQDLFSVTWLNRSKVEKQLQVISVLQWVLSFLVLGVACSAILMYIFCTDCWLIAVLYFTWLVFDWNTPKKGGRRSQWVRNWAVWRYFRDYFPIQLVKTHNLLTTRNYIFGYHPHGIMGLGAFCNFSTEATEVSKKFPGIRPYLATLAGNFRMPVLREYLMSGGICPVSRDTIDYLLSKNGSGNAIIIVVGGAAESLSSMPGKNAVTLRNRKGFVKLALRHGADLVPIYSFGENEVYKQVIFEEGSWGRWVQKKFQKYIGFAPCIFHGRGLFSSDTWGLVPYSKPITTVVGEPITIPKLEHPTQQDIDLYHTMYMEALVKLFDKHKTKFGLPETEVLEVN
Method: Recombinant baculovirus for the FLAG-tagged hDGAT2 was generated in SF9 insect cells using Bac-to-Bac baculovirus expression system (Invitrogen) according to the manufacturer's protocol. For the expression of hDGAT2, SF9 cells (20 L) grown in Sf900II media were infected with hDGAT2 baculovirus at a multiplicity of infection of 1 in a Wave Bioreactor System 20/50P wave bag (GE Healthcare). After 40 hours of infection, the cells were then harvested by centrifugation at 5,000×g. The cell pellets were washed by resuspending in phosphate buffered saline (PBS) and collected by centrifugation at 5,000×g. The cell paste was flash frozen in liquid N2 and stored at −80° C. until needed. All operations below were at 4° C. unless otherwise noted. The cells were resuspended in lysis buffer (50 mM Tris-HCl, pH 8.0, 250 mM sucrose) including 1 mM ethylenediaminetetraacetic acid (EDTA) and the complete protease inhibitor cocktail (Roche Diagnostics) at a ratio of 3 ml buffer per 1 g cell paste. The cells were lysed by dounce homogenizer. The cell debris was removed by centrifugation at 1,000×g for 20 min, and the supernatant was centrifuged at 100,000×g for 1 hour. The resulting pellet was rinsed three times by filling ultracentrifuge tubes to the top with ice cold PBS before decanting. The washed pellet was resuspended with gentle stirring for 1 hour in lysis buffer containing 8 mM 3-[(3-cholamidopropyl)dimethylammonio]-1-propanesulfonate (CHAPS) at a ratio of 1 mL buffer per 1 g of original cell paste and centrifuged again at 100,000×g for 1 hour. The resulting supernatant (hDGAT2 membrane fraction) was aliquotted, flash frozen in liquid N2, and stored at −80° C. until use.
To 1 μL of compounds dissolved in 100% DMSO and spotted at the bottom of each well, 5 μL of 0.04% bovine serum albumin (BSA) (fatty acid free, Sigma Aldrich) was added and the mixture was incubated at room temperature for 20 minutes. To this mixture, 10 μL of hDGAT2 membrane fraction (0.01 mg/mL) diluted in 100 mM Hepes-NaOH, pH 7.4, 20 mM MgCl2 containing 200 nM methyl arachidonyl fluorophosphonate (Cayman Chemical; dried from ethyl acetate stock solution under argon gas and dissolved in DMSO as 5 mM stock) was added. […] The reaction mixtures were incubated at room temperature for 40 min and the reactions were stopped by addition of 5 μL of 1% H3PO4. After the addition of 45 μL MicroScint-E (Perkin-Elmer), plates were sealed with Top Seal-A covers (Perkin-Elmer) and phase partitioning of substrates and products was achieved using a HT-91100 microplate orbital shaker (Big Bear Automation, Santa Clara, Calif.). Plates were centrifuged at 2,000×g for 1 min in an Allegra 6R Centrifuge (Beckman Coulter) and then were sealed again with fresh covers before reading in a 1450 Microbeta Wallac Trilux Scintillation Counter (Perkin Elmer). DGAT2 activity was measured by quantifying the generated product [^14C]tridecanoylglycerol in the upper organic phase.
Inhibitors were tested at eleven different concentrations to generate IC50 values for each compound. […] Results are reported as geometric mean IC50 values.

IC50 | Compound
38.5 nM | C[C@@H](c1nc2ccc(N3CCC[C@@H](C(=O)N4CCCC4)C3)nc2[nH]1)n1cc(Cl)cn1 [Example 196-B, ((R)-1-(2-((S)-1-(4-Chloro-1H-pyrazol-1-yl)ethyl)-3H-imidazo[4,5-b]pyridin-5-yl)piperidin-3-yl)(pyrrolidin-1-yl)methanone hydrochloride]

same assay, conditions: geometric mean; background for complete inhibition of DGAT2 obtained with 50 μM (1R,2R)-2-({3′-Fluoro-4′-[(6-fluoro-1,3-benzothiazol-2-yl)amino]-1,1′-biphenyl-4-yl}carbonyl)cyclopentanecarboxylic acid; read-out: DGAT2 IC50

Compound | IC50
O=C([C@@H]1CCCN(c2ccc3nc(C4(n5cc(Cl)cn5)CC4)[nH]c3n2)C1)N1CCOCC1 [Example 206, (R)-(1-(2-(1-(4-Chloro-1H-pyrazol-1-yl)cyclopropyl)-3H-imidazo[4,5-b]pyridin-5-yl)piperidin-3-yl)(morpholino)methanone] | 246 nM
CCc1cc(-c2nc3ccc(N4CCC[C@@H](C(=O)N5CCCC5)C4)nc3[nH]2)no1 [Example 32, (R)-(1-(2-(5-Ethylisoxazol-3-yl)-3H-imidazo[4,5-b]pyridin-5-yl)piperidin-3-yl)(pyrrolidin-1-yl)methanone] | 239 nM
COc1cc(C(=O)O)cc(-c2nc3ccc(N4CCC[C@@H](C(=O)N5CCCC5)C4)nc3[nH]2)n1 [Example 126, (R)-2-Methoxy-6-(5-(3-(pyrrolidine-1-carbonyl)piperidin-1-yl)-3H-imidazo[4,5-b]pyridin-2-yl)isonicotinic acid] | 3470 nM
Cc1cnn(C2(c3nc4ccc(N5CCC[C@@H](C(=O)N6CCCC6)C5)nc4[nH]3)CC2)c1 [Example 72] | 104 nM
CN(C)C(=O)[C@H]1CN(c2ccc3nc(-c4ccnc(C5CC5)n4)[nH]c3n2)CC(F)(F)C1 [Example 164, (R)-1-(2-(2-Cyclopropylpyrimidin-4-yl)-3H-imidazo[4,5-b]pyridin-5-yl)-5,5-difluoro-N,N-dimethylpiperidine-3-carboxamide] | 2800 nM
O=C([C@@H]1CCCN(c2ccc3nc(-c4ccnc(C5CC5)n4)[nH]c3n2)C1)N1CCC1 [Example 220, (R)-Azetidin-1-yl(1-(2-(2-cyclopropylpyrimidin-4-yl)-3H-imidazo[4,5-b]pyridin-5-yl)piperidin-3-yl)methanone] | 270 nM
O=C([C@@H]1CCCN(c2ccc3nc(-c4ccnc(C5CC5)n4)[nH]c3n2)C1)N1CC[C@H](O)C1 [Example 132, ((R)-1-(2-(2-Cyclopropylpyrimidin-4-yl)-3H-imidazo[4,5-b]pyridin-5-yl)piperidin-3-yl)((S)-3-hydroxypyrrolidin-1-yl)methanone] | 695 nM
O=C([C@H]1CN(c2ccc3nc(-c4cccc(C5CC5)n4)[nH]c3n2)CCO1)N1CCOCC1 [Example 186, (R)-(4-(2-(6-Cyclopropylpyridin-2-yl)-3H-imidazo[4,5-b]pyridin-5-yl)morpholin-2-yl)(morpholino)methanone] | 162 nM
Cc1cc(C2(c3nc4ccc(N5CCC[C@@H](C(=O)N6CCCC6)C5)nc4[nH]3)CC2)on1 [Example 86, (R)-(1-(2-(1-(3-Methylisoxazol-5-yl)cyclopropyl)-3H-imidazo[4,5-b]pyridin-5-yl)piperidin-3-yl)(pyrrolidin-1-yl)methanone] | 288 nM
O=C([C@@H]1CCCN(c2ccc3nc(-c4cncc(F)c4)[nH]c3n2)C1)N1CCCC1 [Example 113, (R)-(1-(2-(5-Fluoropyridin-3-yl)-3H-imidazo[4,5-b]pyridin-5-yl)piperidin-3-yl)(pyrrolidin-1-yl)methanone] | 137 nM
O=C([C@@H]1CCCN(c2ccc3nc(C4CCC4)[nH]c3n2)C1)N1CCCC1 [Example 53, (R)-(1-(2-Cyclobutyl-3H-imidazo[4,5-b]pyridin-5-yl)piperidin-3-yl)(pyrrolidin-1-yl)methanone] | 2530 nM
C[C@H]1CO[C@@H](c2ccccn2)CN1c1ccc2nc(-c3cccc(Cl)c3)[nH]c2n1 [Example 177, (2R,5S)-4-(2-(3-Chlorophenyl)-3H-imidazo[4,5-b]pyridin-5-yl)-5-methyl-2-(pyridin-2-yl)morpholine] | 953 nM
O=C([C@@H]1CCCN(c2ccc3nc(C4(c5ccncc5)CC4)[nH]c3n2)C1)N1CCCC1 [Example 161, (R)-(1-(2-(1-(Pyridin-4-yl)cyclopropyl)-3H-imidazo[4,5-b]pyridin-5-yl)piperidin-3-yl)(pyrrolidin-1-yl)methanone] | 218 nM
O=C(C1CCCC1)N1CCCC(c2nc3ccc(N4CCC[C@@H](C(=O)N5CCCC5)C4)nc3[nH]2)C1 (some centres unmarked) [Example 62] | 241 nM
c1cc(-c2nc3ccc(N4CCCC(c5ncc6n5CCC6)C4)nc3[nH]2)nc(C2CC2)n1 (centres unmarked) [Example 133, 2-(2-Cyclopropylpyrimidin-4-yl)-5-(3-(6,7-dihydro-5H-pyrrolo[1,2-c]imidazol-3-yl)piperidin-1-yl)-3H-imidazo[4,5-b]pyridine] | 252 nM

Results, then the compound that gave them:

IC50 | Compound
16.3 nM | O=C([C@@H]1CCCN(c2ccc3nc(-c4cncc(Cl)c4)[nH]c3n2)C1)N1CCCC1 [Example 7, (R)-(1-(2-(5-Chloropyridin-3-yl)-3H-imidazo[4,5-b]pyridin-5-yl)piperidin-3-yl)(pyrrolidin-1-yl)methanone]
28.9 nM | CCOC(=O)c1cc(CC)nc(-c2nc3ccc(N4CCC[C@@H](C(=O)N5CCCC5)C4)nc3[nH]2)c1 [Example 105, (R)-Ethyl 2-ethyl-6-(5-(3-(pyrrolidine-1-carbonyl)piperidin-1-yl)-3H-imidazo[4,5-b]pyridin-2-yl)isonicotinate]
7.41 nM | O=C([C@@H]1CCCN(c2ccc3nc(-c4cccc(OC(F)F)c4)[nH]c3n2)C1)N1CCCC1 [Example 43, (R)-(1-(2-(3-(Difluoromethoxy)phenyl)-3H-imidazo[4,5-b]pyridin-5-yl)piperidin-3-yl)(pyrrolidin-1-yl)methanone]
10.7 nM | O=C([C@@H]1CCCN(c2ccc3nc(COc4ccc(Cl)cc4)[nH]c3n2)C1)N1CCCC1 [Example 48]
29.2 nM | O=C([C@@H]1CCCN(c2ccc3nc(-c4ccnc(N5CCCC5)n4)[nH]c3n2)C1)N1CCCC1 [Example 10, (R)-Pyrrolidin-1-yl(1-(2-(2-(pyrrolidin-1-yl)pyrimidin-4-yl)-3H-imidazo[4,5-b]pyridin-5-yl)piperidin-3-yl)methanone]
101 nM | COc1cnn(C2(c3nc4ccc(N5CCC[C@@H](C(=O)N6CCCC6)C5)nc4[nH]3)CC2)c1 [Example 194, (R)-(1-(2-(1-(4-Methoxy-1H-pyrazol-1-yl)cyclopropyl)-3H-imidazo[4,5-b]pyridin-5-yl)piperidin-3-yl)(pyrrolidin-1-yl)methanone]
91 nM | C[C@@H]1CCCN1C(=O)[C@@H]1CCCN(c2ccc3nc(C4(n5cc(Cl)cn5)CC4)[nH]c3n2)C1 [Example 201, ((R)-1-(2-(1-(4-Chloro-1H-pyrazol-1-yl)cyclopropyl)-3H-imidazo[4,5-b]pyridin-5-yl)piperidin-3-yl)((R)-2-methylpyrrolidin-1-yl)methanone]
86.4 nM | CC(C)COC(=O)N1CCCC(c2nc3ccc(N4CCC[C@@H](C(=O)N5CCCC5)C4)nc3[nH]2)C1 (stereo in doubt) [Example 61, (R)-iso-Butyl 3-(5-(3-(pyrrolidine-1-carbonyl)piperidin-1-yl)-3H-imidazo[4,5-b]pyridine-2-yl)piperidine-1-carboxylate]
69.7 nM | O=C([C@@H]1CCCN(c2ccc3nc(C4(c5ccccc5)CC4)[nH]c3n2)C1)N1CCCC1 [Example 51, (R)-(1-(2-(1-Phenylcyclopropyl)-3H-imidazo[4,5-b]pyridin-5-yl)piperidin-3-yl)(pyrrolidin-1-yl)methanone]

same assay, conditions: read-out: DGAT2 IC50

IC50 | Compound
789 nM | O=C([C@@H]1CCCN(c2ccc3nc(C4(c5ccc[n+]([O-])c5)CC4)[nH]c3n2)C1)N1CCCC1 [Example 160, (R)-3-(1-(5-(3-(Pyrrolidine-1-carbonyl)piperidin-1-yl)-3H-imidazo[4,5-b]pyridin-2-yl)cyclopropyl)pyridine 1-oxide]
